In ChEMBL document CHEMBL6114946, “Development and characterization of pyridyl carboxamides as potent and highly selective Nav1.8 inhibitors” (Bioorg Med Chem Lett, 2025):
Converted amounts (≈) assume the structure as drawn. The source made the active and inactive calls. The calls are words filed in the database; no cut-off is given here.

How the values were obtained:
[1] = target: T1, Sodium channel protein type 10 subunit alpha (Homo sapiens, UniProt Q9Y5Y9); experiment: Inhibition of Nav1.8 (unknown origin) over expressed in HEK cells assessed as reduction in deltamethrin-stimulated channel activation by FLIPR assay; format: cell-based
Target sequence in this assay (Q9Y5Y9 whole entry): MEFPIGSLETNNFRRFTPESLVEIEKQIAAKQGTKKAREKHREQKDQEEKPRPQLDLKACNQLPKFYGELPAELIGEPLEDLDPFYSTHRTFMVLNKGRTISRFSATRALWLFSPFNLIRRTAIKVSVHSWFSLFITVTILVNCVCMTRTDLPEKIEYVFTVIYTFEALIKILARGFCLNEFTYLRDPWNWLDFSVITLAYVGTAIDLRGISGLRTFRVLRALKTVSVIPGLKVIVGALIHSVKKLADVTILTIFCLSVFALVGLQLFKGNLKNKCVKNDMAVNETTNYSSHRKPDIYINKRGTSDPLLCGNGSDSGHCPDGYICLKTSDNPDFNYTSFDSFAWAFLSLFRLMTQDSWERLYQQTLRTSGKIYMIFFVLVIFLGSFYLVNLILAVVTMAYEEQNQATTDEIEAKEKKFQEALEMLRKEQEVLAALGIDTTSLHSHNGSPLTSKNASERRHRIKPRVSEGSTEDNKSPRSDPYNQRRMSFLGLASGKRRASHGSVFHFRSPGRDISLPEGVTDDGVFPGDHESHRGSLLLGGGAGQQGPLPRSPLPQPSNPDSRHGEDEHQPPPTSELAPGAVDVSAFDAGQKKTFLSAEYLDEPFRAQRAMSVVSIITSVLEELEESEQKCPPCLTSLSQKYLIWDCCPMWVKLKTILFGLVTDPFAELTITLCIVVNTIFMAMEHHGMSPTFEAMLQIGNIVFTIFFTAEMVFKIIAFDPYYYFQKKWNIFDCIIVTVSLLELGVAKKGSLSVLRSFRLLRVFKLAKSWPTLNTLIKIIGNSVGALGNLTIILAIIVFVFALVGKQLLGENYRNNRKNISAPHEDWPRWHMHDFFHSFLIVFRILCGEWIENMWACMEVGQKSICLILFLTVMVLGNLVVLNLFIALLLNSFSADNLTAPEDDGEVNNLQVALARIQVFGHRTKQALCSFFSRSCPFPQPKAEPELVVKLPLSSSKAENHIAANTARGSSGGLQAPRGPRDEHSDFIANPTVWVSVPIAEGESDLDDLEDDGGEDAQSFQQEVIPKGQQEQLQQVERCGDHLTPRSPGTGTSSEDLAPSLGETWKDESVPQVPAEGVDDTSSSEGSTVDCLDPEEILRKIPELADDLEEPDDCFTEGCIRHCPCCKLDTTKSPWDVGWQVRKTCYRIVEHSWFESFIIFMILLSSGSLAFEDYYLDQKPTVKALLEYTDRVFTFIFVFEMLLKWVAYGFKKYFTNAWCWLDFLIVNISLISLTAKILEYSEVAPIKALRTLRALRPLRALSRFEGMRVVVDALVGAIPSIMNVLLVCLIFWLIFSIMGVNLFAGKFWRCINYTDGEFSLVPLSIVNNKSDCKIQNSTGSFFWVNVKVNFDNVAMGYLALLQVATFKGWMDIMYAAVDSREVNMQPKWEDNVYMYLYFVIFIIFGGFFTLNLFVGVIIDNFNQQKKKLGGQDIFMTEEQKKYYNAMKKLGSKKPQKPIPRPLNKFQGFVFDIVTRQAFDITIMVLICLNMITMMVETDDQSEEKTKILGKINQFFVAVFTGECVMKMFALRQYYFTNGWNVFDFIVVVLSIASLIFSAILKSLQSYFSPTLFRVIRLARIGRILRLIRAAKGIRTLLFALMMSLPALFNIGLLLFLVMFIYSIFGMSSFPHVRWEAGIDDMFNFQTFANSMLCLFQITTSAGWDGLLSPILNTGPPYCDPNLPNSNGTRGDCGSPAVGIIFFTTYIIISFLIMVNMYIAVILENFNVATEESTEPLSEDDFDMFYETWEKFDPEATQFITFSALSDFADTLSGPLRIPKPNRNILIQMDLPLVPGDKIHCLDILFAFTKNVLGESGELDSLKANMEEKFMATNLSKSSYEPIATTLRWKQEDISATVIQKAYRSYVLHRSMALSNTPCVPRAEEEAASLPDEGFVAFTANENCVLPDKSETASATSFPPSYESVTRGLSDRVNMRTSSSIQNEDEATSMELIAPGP

[2] = target: T1, Sodium channel protein type 10 subunit alpha; experiment: Inhibition of human Nav1.8 with resting membrane potential at half inactivated state by PatchXpress high-throughput electrophysiology method
Target sequence in this assay (Q9Y5Y9 whole entry): as above

[3] = target: T1, Sodium channel protein type 10 subunit alpha; experiment: Inhibition of Nav1.8 (unknown origin) at 10 uM by Ionflux high-throughput automated patch method
Target sequence in this assay (Q9Y5Y9 whole entry, looked up): as the sequence (Q9Y5Y9 whole entry) above

[4] = Kinetic solubility of the compound in pH 7.4 phosphate buffered saline measured after 2 hrs by LC/MS analysis; format: physicochemical; conditions: read-out: Kinetic_solubility
[5] = Clearance in rat at 1 mg/kg; format: ADME, organism-based; conditions: in vivo
[6] = Oral bioavailability in rat at 10 mg/kg; format: ADME, organism-based; conditions: in vivo
[7] = target: Sodium channel protein type 10 subunit alpha (Mus musculus, UniProt Q6QIY3); experiment: Inhibition of mouse Nav1.8 with resting membrane potential at half inactivated state by PatchXpress high-throughput electrophysiology method
Sodium channel protein type 10 subunit alpha (Mus musculus, UniProt Q6QIY3), sequence (Q6QIY3 whole entry): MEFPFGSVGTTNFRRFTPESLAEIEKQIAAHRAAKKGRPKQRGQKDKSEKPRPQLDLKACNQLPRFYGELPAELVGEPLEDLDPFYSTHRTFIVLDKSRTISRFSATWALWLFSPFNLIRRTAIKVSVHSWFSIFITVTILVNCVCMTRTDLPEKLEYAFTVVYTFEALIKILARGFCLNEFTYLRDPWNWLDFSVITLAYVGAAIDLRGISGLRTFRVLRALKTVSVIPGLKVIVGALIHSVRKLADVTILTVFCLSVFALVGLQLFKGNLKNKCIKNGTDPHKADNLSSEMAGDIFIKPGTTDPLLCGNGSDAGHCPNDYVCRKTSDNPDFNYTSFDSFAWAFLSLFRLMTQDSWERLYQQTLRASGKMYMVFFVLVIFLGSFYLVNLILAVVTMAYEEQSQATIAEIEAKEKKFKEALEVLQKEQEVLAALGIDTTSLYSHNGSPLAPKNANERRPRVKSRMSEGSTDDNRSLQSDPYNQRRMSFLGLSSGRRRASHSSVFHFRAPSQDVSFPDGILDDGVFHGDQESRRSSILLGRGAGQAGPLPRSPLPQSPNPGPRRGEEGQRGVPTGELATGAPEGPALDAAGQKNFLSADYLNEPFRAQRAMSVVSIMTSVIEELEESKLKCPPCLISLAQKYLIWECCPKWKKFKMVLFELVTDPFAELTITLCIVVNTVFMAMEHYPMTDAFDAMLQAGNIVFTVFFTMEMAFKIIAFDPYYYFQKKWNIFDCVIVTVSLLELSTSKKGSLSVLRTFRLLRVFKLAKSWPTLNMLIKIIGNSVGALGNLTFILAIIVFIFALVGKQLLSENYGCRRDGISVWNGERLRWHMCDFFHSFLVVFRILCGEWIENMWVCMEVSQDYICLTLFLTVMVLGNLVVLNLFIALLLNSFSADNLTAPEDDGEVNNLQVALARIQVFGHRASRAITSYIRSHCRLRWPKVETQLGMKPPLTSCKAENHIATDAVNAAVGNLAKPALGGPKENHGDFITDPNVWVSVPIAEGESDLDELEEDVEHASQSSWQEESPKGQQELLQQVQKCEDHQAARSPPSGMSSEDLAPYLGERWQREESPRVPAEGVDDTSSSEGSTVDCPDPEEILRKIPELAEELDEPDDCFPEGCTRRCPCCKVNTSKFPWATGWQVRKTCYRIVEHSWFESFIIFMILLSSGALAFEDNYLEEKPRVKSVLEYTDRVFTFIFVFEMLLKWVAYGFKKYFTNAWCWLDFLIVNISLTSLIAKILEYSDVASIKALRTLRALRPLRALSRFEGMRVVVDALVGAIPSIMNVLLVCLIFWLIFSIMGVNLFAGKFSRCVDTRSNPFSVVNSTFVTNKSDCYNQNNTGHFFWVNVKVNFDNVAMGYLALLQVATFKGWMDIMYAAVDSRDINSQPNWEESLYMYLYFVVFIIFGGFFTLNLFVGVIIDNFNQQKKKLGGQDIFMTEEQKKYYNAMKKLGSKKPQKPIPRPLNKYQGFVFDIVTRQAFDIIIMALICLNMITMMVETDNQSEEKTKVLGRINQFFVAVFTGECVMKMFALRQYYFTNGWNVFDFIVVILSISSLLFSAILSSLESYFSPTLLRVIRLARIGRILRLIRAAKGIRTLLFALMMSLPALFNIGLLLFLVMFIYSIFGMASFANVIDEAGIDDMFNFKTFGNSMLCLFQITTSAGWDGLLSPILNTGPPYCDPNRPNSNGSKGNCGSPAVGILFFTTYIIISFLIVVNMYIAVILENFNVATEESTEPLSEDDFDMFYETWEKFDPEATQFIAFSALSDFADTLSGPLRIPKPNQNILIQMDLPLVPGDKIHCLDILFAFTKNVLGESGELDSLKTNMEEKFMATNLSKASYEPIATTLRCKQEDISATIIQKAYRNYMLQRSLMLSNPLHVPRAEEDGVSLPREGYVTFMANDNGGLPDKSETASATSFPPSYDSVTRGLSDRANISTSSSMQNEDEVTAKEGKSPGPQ

[8] = target: Voltage-gated inwardly rectifying potassium channel KCNH2 (Homo sapiens, UniProt Q12809); experiment: Inhibition of human ERG; format: toxicity
[9] = Protein binding in human plasma assessed as unbound fraction; format: ADME, cell-free
[10] = Stability in human liver microsomes assessed as parent compound remaining measured after 60 mins; format: ADME, Microsome; conditions: read-out: Stability
Cytochrome P450 3A4 = Cytochrome P450 3A4 (Homo sapiens, UniProt P08684); experiment: Inhibition of CYP3A4 (unknown origin); format: ADME
Cytochrome P450 3A4, sequence (P08684 whole entry): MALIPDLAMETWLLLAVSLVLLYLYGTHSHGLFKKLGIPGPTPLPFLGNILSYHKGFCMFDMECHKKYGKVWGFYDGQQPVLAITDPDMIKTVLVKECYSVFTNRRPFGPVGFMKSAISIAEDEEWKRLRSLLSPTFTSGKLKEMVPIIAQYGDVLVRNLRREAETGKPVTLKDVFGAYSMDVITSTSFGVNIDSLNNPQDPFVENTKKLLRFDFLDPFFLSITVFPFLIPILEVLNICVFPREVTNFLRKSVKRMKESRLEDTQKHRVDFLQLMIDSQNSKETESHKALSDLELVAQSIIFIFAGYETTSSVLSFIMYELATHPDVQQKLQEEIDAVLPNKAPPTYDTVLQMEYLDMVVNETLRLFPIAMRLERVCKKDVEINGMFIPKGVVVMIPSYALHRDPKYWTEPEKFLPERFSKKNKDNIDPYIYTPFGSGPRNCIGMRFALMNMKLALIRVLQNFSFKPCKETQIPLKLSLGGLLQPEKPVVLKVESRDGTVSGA

Cytochrome P450 1A2 = target: T2, Cytochrome P450 1A2 (Homo sapiens, UniProt P05177); experiment: Inhibition of CYP1A2 (unknown origin); format: ADME
T2 sequence (P05177 whole entry): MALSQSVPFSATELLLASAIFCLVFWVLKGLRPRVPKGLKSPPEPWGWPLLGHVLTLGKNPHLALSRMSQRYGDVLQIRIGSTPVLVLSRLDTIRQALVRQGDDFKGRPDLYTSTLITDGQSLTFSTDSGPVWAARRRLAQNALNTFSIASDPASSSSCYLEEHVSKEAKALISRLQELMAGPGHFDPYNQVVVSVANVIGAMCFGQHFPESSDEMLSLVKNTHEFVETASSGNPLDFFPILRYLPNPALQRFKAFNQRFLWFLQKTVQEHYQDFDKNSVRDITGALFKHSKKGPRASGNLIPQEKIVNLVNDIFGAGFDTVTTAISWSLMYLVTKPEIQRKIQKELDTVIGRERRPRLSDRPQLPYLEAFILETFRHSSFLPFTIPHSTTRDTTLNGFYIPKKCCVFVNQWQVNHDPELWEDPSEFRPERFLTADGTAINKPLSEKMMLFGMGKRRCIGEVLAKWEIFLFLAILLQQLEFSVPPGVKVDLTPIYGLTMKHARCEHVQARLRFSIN

[11] = Apparent permeability in MDCK-MDR1 cells; format: ADME, cell-based, Canis lupus familiaris; conditions: dog
[12] = Efflux ratio of apparent permeability in MDCK-MDR1 cells; format: ADME, cell-based, Canis lupus familiaris; conditions: dog
[13] = Clearance in dog at 1 mg/kg; format: ADME, organism-based, Canis lupus familiaris; conditions: in vivo
[14] = Clearance in cynomolgus monkey at 1 mg/kg; format: ADME, organism-based, Macaca fascicularis; conditions: in vivo
[15] = Oral bioavailability in dog at 10 mg/kg; format: ADME, organism-based, Canis lupus familiaris; conditions: in vivo
[16] = Oral bioavailability in cynomolgus monkey at 10 mg/kg; format: ADME, organism-based, Macaca fascicularis; conditions: in vivo
[17] = Volume of distribution at steady state in rat at 1 mg/kg, iv; format: ADME, organism-based; conditions: in vivo, read-out: Vdss
[18] = Volume of distribution at steady state in dog at 1 mg/kg, iv; format: ADME, organism-based, Canis lupus familiaris; conditions: in vivo, read-out: Vdss
[19] = Volume of distribution at steady state in cynomolgus monkey at 1 mg/kg, iv; format: ADME, organism-based, Macaca fascicularis; conditions: in vivo, read-out: Vdss
[20] = Ratio of drug level in rat brain to plasma at 1 mg/kg, iv measured after 60 mins; format: ADME, organism-based; conditions: read-out: BPR
[21] = target: Nav1.1 (sodium channel protein type 1 subunit alpha) (Homo sapiens, UniProt P35498); experiment: Inhibition of Nav1.1 (unknown origin) at 30 uM relative to control; format: toxicity
[22] = target: Nav1.2 (sodium channel protein type 2 subunit alpha) (Homo sapiens, UniProt Q99250); experiment: Inhibition of Nav1.2 (unknown origin) at 30 uM relative to control; format: toxicity
[23] = target: Nav1.3 (sodium channel protein type 3 subunit alpha) (Homo sapiens, UniProt Q9NY46); experiment: Inhibition of Nav1.3 (unknown origin) at 30 uM relative to control; format: toxicity
[24] = target: Nav1.4 (sodium channel protein type 4 subunit alpha) (Homo sapiens, UniProt P35499); experiment: Inhibition of Nav1.4 (unknown origin) at 30 uM relative to control; format: toxicity
[25] = target: Nav1.5 (sodium channel protein type 5 subunit alpha) (Homo sapiens, UniProt Q14524); experiment: Inhibition of Nav1.5 (unknown origin) at 30 uM relative to control; format: toxicity
[26] = target: Nav1.6 (sodium channel protein type 8 subunit alpha) (Homo sapiens, UniProt Q9UQD0); experiment: Inhibition of Nav1.6 (unknown origin) at 30 uM relative to control; format: toxicity
[27] = target: Nav1.7 (sodium channel protein type 9 subunit alpha) (Homo sapiens, UniProt Q15858); experiment: Inhibition of Nav1.7 (unknown origin) at 30 uM relative to control; format: toxicity
[28] = target: T1, Sodium channel protein type 10 subunit alpha; experiment: Inhibition of human Nav1.8 with resting membrane potential by PatchXpress high-throughput electrophysiology method
Target sequence in this assay (Q9Y5Y9 whole entry): as the sequence (Q9Y5Y9 whole entry) above

[29] = target: T1, Sodium channel protein type 10 subunit alpha; experiment: Inhibition of Nav1.8 (unknown origin) over expressed in HEK cells exposed to 1st depolarizing pulse at 10 Hz train of action potential at 12 nM; format: cell-based
Target sequence in this assay (Q9Y5Y9 whole entry, looked up): as the sequence (Q9Y5Y9 whole entry) above

[30] = target: T1, Sodium channel protein type 10 subunit alpha; experiment: Inhibition of Nav1.8 (unknown origin) over expressed in HEK cells exposed to 120th depolarizing pulse at 10 Hz train of action potential at 12 nM; format: cell-based
Target sequence in this assay (Q9Y5Y9 whole entry, looked up): as the sequence (Q9Y5Y9 whole entry) above

[31] = Inhibition of Nav1.5 (domain 1 and 2)-Nav 1.8 (domain 3 and 4) chimera (unknown origin) with resting membrane potential at half inactivated state by PatchXpress high-throughput electrophysiology method; set-up: species or system Homo sapiens
[32] = Genotoxicity in Salmonella typhimurium by Ames test; format: toxicity; conditions: salmonella enterica subsp. enterica serovar typhimurium
Cytochrome P450 2C9 = Cytochrome P450 2C9 (Homo sapiens, UniProt P11712); experiment: Inhibition of CYP2C9 (unknown origin) at 2 to 8 uM; format: ADME; conditions: dose 2-8 µM
[33] = Half life in rat; format: ADME; conditions: in vivo
[34] = target: T1, Sodium channel protein type 10 subunit alpha; experiment: Inhibition of Nav1.8 (unknown origin) over expressed in HEK cells exposed to 1st depolarizing pulse at 10 Hz train of action potential at 35 nM; format: cell-based
Target sequence in this assay (Q9Y5Y9 whole entry, looked up): as the sequence (Q9Y5Y9 whole entry) above

[35] = target: T1, Sodium channel protein type 10 subunit alpha; experiment: Inhibition of Nav1.8 (unknown origin) over expressed in HEK cells exposed to 120th depolarizing pulse at 10 Hz train of action potential at 35 nM; format: cell-based
Target sequence in this assay (Q9Y5Y9 whole entry, looked up): as the sequence (Q9Y5Y9 whole entry) above

[36] = Inhibition of Nav1.8 (domain 1 and 2)-Nav 1.5 (domain 3 and 4) chimera (unknown origin) with resting membrane potential at half inactivated state by PatchXpress high-throughput electrophysiology method; set-up: species or system Homo sapiens

Row | Compound | IC50 [1] | IC50 [2] | inhibition [3] | solubility kinetic at 2 h [4] | clearance [5] | bioavailability [6] | IC50 [7] | fraction unbound [9] | remaining at 1 h [10] | INH (Cytochrome P450 3A4) | INH (Cytochrome P450 1A2) | Papp [11] | efflux ratio [12] | clearance [13] | bioavailability [15] | Vd [17] | Vd [18] | IC50 [8] | further results
1 | CS(=N)(=O)c1cccc(NC(=O)c2cc(C(F)(F)F)cnc2Oc2ccc(F)cc2Cl)c1 (configuration not stated) |  | 12 nM | Active | 26 µg/mL (≈ 53.3 µM) | 5.9 mL/min/kg | 86% | 660 nM | 0.073 | > 95% | > 30 µM | > 30 µM | 15.5 ×10⁻⁶ cm/s | 0.8 | 3.6 mL/min/kg | 61% | 1.9 L/kg | 2 L/kg | > 30000 nM | clearance [14]: 2.5 mL/min/kg; bioavailability [16]: 98%; Vd [19]: 2.9 L/kg; Kp at 1 h [20]: 0.89; inhibition at 30 µM [21]: < 25%; inhibition at 30 µM [22]: < 25%; inhibition at 30 µM [23]: < 25%; inhibition at 30 µM [24]: < 25%; inhibition at 30 µM [25]: < 25%; inhibition at 30 µM [26]: < 25%; inhibition at 30 µM [27]: < 25%; IC50 [28]: 43 nM; inhibition [29]: 25.4%; inhibition [30]: 24.9%; IC50 [31]: 9310 nM
2 | Nc1ccc[n+]([O-])c1 |  |  |  |  |  |  |  |  |  |  |  |  |  |  |  |  |  |  | Activity [32]: Non-toxic
3 | CN=S(C)(=O)c1cccc(NC(=O)c2cc(C(F)(F)F)cnc2Oc2ccc(F)cc2OC)c1 (configuration not stated) | 69 nM | 68 nM | Active | 27 µg/mL (≈ 54.3 µM) |  |  |  |  |  |  |  |  |  |  |  |  |  |  | 
4 | O=C(Nc1ccc[n+]([O-])c1)c1cc(C(F)(F)F)cnc1Oc1ccc(F)cc1Cl |  | 56 nM | Active | 0.084 µg/mL (≈ 0.196 µM) | 3.3 mL/min/kg |  | 920 nM | 0.1 | 95% | > 30 µM | > 30 µM |  |  |  |  |  |  | 15000 nM | Activity [32]: Non-toxic
5 | Cc1cc(F)ccc1Oc1ncc(C(F)(F)F)cc1C(=O)Nc1cccc([S@](C)(=N)=O)c1 |  | 35 nM | Active | 65 µg/mL (≈ 139 µM) | 6.1 mL/min/kg | 80% | 3040 nM | 0.14 | > 95% | > 30 µM | > 30 µM | 18.1 ×10⁻⁶ cm/s | 0.8 | 1.7 mL/min/kg | 39% | 1.8 L/kg | 1.2 L/kg | > 30000 nM | clearance [14]: 7.7 mL/min/kg; bioavailability [16]: 61%; Vd [19]: 1.9 L/kg; Kp at 1 h [20]: 0.6; inhibition at 30 µM [21]: < 25%; inhibition at 30 µM [22]: < 25%; inhibition at 30 µM [23]: < 25%; inhibition at 30 µM [24]: < 25%; inhibition at 30 µM [25]: < 25%; inhibition at 30 µM [26]: < 25%; inhibition at 30 µM [27]: < 25%; IC50 [28]: 53 nM; inhibition [34]: 33.8%; inhibition [35]: 35.5%; IC50 [36]: 40 nM; IC50 [31]: > 30000 nM
6 | CS(=O)(=O)c1cccc(NC(=O)c2cc(C(F)(F)F)cnc2Oc2ccc(OC(F)(F)F)cc2Cl)c1 | 24 nM | 15 nM | Active | 1.5 µg/mL (≈ 2.7 µM) |  |  |  |  |  |  |  |  |  |  |  |  |  |  | 

Continued, in another order:

Row | IC50 [1] | IC50 [2] | inhibition [3] | solubility kinetic at 2 h [4] | clearance [5] | bioavailability [6] | IC50 [7] | fraction unbound [9] | remaining at 1 h [10] | INH (Cytochrome P450 3A4) | INH (Cytochrome P450 1A2) | Papp [11] | efflux ratio [12] | clearance [13] | bioavailability [15] | Vd [17] | Vd [18] | Compound | IC50 [8] | further results
7 | 22 nM | 23 nM | Active | 48 µg/mL (≈ 99.3 µM) |  |  |  |  |  |  |  |  |  |  |  |  |  | COc1cc(F)ccc1Oc1ncc(C(F)(F)F)cc1C(=O)Nc1cccc(S(C)(=N)=O)c1 (configuration not stated) |  | 
8 |  | 71 nM | Active | 95 µg/mL (≈ 233 µM) | 24 mL/min/kg | 45% | 3100 nM | 0.15 | 95% | > 30 µM | 4 µM | 63 ×10⁻⁶ cm/s | 0.7 | 11 mL/min/kg | 100% | 1 L/kg | 3.4 L/kg | COc1cc(F)ccc1Oc1cc(C(F)(F)F)ncc1C(=O)Nc1ccnnc1 | > 30000 nM | inhibition (INH) (Cytochrome P450 2C9): Moderate_effect
9 | 60 nM | 14 nM | Active |  | 16 mL/min/kg | 14% |  |  |  |  |  |  |  |  |  |  |  | COc1cc(F)ccc1Oc1ncc(C(F)(F)F)cc1C(=O)Nc1cccc(S(C)(=O)=O)c1 |  | half-life [33]: 5.6 h
10 | 540 nM | 250 nM | Active | 70 µg/mL (≈ 171 µM) |  |  |  |  |  |  |  |  |  |  |  |  |  | COc1cc(F)ccc1Oc1ncc(C(F)(F)F)cc1C(=O)Nc1ccnnc1 |  | 
